Reference: patent publication US12576169B2, “Silicon-fluoride acceptor substituted radiopharmaceuticals and precursors thereof” (Technische Universität München, priority 2019, dated 2026)
Read-outs that look alike come from different tables or passages of the source.

Columns and labels:
PSMA = PSMA (Homo sapiens, UniProt Q04609); assay: IC50 determination: PSMA binding affinity, competition with [125I]XII on LNCaP cells
Description: LNCaP cells were grown in Dulbecco's Modified Eagle Medium/Nutrient Mixture F-12 (DMEM/F-12, add. 10% fetal calf serum (FCS), v/v) and maintained at 37° C. in a humidified 5% CO2 atmosphere. […] After removal of the culture medium, LNCaP cells were treated with HBSS (add. 1% BSA, v/v, 4° C., 500 μL) and subsequently left 15 min on ice for equilibration in HBSS (add. 1% BSA, v/v, 4° C., 200 μL). […] For the control series, HBSS (add. 1% BSA, v/v, 25 μL) was used instead of the SiFA-PSMA ligand solution. Each concentration and the control were prepared in triplicate. After 1 h incubation on ice, the assay medium was removed and cells were washed with HBSS (200 μL, 4° C.). […] NaOH (200 μL) for at least 10 min and the resulting cell lysate was removed. The wells were treated again with 1 M aq. […] The experiment was repeated for at least three times and the IC50 value calculated using the GraphPad PRISM 8.0.2 software (Graphpad Software Inc., La Jolla, United States).

LNCaP cells = assay: Internalization of 18F-labeled ligands into LNCaP cells; type: cell-based, human; conditions: internalized activity at 1 h in % of reference [125I]XII; c = 0.5 nM; LNCaP cells (125.000 cells/well); 37° C., DMEM/F-12 add. 5% BSA; corrected for non-specific binding (10 μm PMPA); mean ± SD (n = 3)
Description: LNCaP cells were grown in DMEM/F-12 (add. 10% FCS, v/v) and maintained at 37° C. in a humidified 5% CO2 atmosphere. […] Subsequent to the removal of the culture medium, cells were washed with DMEM-F12 (add. 5% BSA, v/v, 500 μL) and left to equilibrate in DMEM-F12 (add. 5% BSA, v/v, 200 μL) at 37° C. for 15 min. Each well was treated with either DMEM-F12 (add. 5% BSA, v/v, 25 μL) or a 2-(phosphonomethyl)-pentandioic acid (PMPA) solution (100 μM in PBS, 25 μL) for blockade. Afterwards, the ^18F-labeled SiFA-PSMA ligand (5 nM in PBS, 25 μL) was added and the cells were incubated for 1 h at 37° C. The experiment was terminated by placing the 24-well plate on ice for 3 min and removal of the assay medium. Each well was rinsed with HBSS (4° C., 250 μL) and the fractions were combined with the previous assay medium, representing the amount of unbound radioligand. For removal of surface bound activity, LNCaP cells were incubated with PMPA solution (10 μM in PBS, 4° C., 250 μL) for 5 min and rinsed again with PBS (250 μL, 4° C.). The internalized activity was determined by incubation of LNCaP cells with 1 M aq. NaOH (250 μL) for at least 10 min and combination with the fraction of a subsequent wash step with 1 M aq. NaOH (200 μL). Each experiment (control and blockade) was performed in triplicate. […] All internalization studies were accompanied by reference studies using the reference compound XII (2 nM in HBSS add. 1% BSA, v/v), which were performed analogously. Data were corrected for non-specific internalization and normalized to the specific-internalization observed for the radioiodinated reference compound.

[1] = biological target: T1, human serum albumin (HSA) (Homo sapiens, UniProt P02768); assay: Binding to HSA on a Chiralpak HSA column; type: in vitro ADME; conditions: calibration with nine reference substances
T1 construct: purchased H13H-2433
Description: For the determination of human serum albumin (HSA) binding, a Chiralpak HSA column (50×3 mm, 5 μm, H13H-2433) was used at a constant flow rate of 0.5 mL/min. The mobile phase composed of a 50 mM NH4OAc solution in water with pH=7 (solvent C) and isopropanol (solvent D) was freshly prepared for each experiment and used only once. The reference substances (Table 1) as well as the analyzed SiFA-PSMA ligands were dissolved in a mixture of solvent C/solvent D (1:1, v/v, 0.5 mg/mL) and eluted from the HSA column (0-3 min: 100% C, 3-20 min: 20% D in C, λ=254 nm). The column was kept at rt and each run was stopped after detection of the signal to reduce the acquisition time. The nine reference substances display an HSA binding range of 13% to 99% and were injected consecutively in order to establish a sigmoidal calibration curve with the software OriginPro 2018b (FIG. 1).

[2] = n-Octanol-PBS partition coefficient (logD7.4); type: physicochemical; conditions: 18F-labeled ligand; n-octanol/PBS pH=7.4; mean ± SD (n = 5)
Description: Approx. 0.5 MBq of the ^18F-labeled SiFA-PSMA ligand were added into a test tube containing n-octanol (500 μL) and PBS (500 μL, pH=7.4). After vigorously shaking the two-phase mixture for 3 min at rt, the test tube was centrifuged at 9.000 rpm for 5 min to achieve quantitative phase separation. Finally, 150 μL of each layer were pipetted off and measured for activity using a gamma counter. After repeating the experiment for at least five times, the n-octanol-PBS partition coefficient log D7.4 was calculated according to following formula.

[3] = LNCaP cells (150.000 cells/well), reference [125I]XII c = 0.2 nM, 1 h, 4° C., HBSS add. 1% BSA, mean ± SD (n = 3)

T1 sequence (P02768 25-609): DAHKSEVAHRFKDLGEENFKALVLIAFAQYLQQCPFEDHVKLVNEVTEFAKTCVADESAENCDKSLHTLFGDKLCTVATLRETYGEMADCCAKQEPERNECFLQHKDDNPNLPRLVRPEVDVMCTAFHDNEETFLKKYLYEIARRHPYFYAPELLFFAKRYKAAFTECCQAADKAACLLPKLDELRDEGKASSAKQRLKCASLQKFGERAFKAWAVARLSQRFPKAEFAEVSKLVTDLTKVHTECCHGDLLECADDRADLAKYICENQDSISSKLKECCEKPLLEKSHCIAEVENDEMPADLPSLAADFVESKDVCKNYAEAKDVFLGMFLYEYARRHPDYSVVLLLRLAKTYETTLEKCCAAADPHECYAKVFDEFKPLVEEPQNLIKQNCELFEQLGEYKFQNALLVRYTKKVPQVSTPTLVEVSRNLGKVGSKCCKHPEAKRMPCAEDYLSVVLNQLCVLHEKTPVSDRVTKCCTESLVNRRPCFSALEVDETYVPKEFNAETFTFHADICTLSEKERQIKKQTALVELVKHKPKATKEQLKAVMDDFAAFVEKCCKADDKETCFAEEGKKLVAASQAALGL
Chain of PSMA (Q04609 whole entry): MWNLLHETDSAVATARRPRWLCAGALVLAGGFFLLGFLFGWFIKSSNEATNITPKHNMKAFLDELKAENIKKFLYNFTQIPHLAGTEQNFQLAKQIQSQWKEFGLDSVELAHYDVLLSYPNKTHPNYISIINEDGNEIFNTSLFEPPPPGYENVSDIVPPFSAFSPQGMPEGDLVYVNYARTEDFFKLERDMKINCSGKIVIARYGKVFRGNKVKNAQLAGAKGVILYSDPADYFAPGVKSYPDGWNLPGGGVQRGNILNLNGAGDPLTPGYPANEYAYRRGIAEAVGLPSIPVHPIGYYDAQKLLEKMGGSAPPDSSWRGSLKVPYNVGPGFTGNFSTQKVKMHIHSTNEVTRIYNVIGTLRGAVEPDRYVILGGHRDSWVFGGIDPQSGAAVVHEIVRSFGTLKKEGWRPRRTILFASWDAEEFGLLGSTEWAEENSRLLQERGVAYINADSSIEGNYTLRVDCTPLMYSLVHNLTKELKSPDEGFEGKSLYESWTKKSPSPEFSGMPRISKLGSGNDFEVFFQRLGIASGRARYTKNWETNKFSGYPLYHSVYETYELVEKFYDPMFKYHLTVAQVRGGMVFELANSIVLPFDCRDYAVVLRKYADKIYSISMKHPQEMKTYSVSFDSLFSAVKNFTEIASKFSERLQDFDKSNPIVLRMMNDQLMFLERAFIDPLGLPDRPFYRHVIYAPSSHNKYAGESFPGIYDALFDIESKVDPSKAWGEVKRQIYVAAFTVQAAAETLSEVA

SMILES | IC50 (PSMA; [3]) | Internalization (LNCaP cells) | Binding to HSA [1] | logD7.4 [2] | IC50 (PSMA)
CC(C)(C)[Si](F)(c1ccc(C(=O)NC[C@@H](NC(=O)[C@@H](CC(=O)O)NC(=O)CC[C@H](NC(=O)N[C@@H](CCC(=O)O)C(=O)O)C(=O)O)C(=O)N[C@H](CCCCNC(=O)CCC(=O)NCCC[C@@H](NC(=O)CC[C@H](NC(=O)N[C@@H](CCC(=O)O)C(=O)O)C(=O)O)C(=O)O)C(=O)O)cc1)C(C)(C)C [SiFA-PSMA ligand 01 a] | 7.8 ± 0.8 nM | 162.54 ± 7.08% | ≥99.0% | −4.02 ± 0.04 | 
CC(C)(C)[Si](F)(c1ccc(C(=O)NC[C@@H](NC(=O)[C@@H](CCC(=O)O)NC(=O)CC[C@H](NC(=O)N[C@@H](CCC(=O)O)C(=O)O)C(=O)O)C(=O)N[C@H](CCCCNC(=O)CCC(=O)NCCC[C@@H](NC(=O)CC[C@H](NC(=O)N[C@@H](CCC(=O)O)C(=O)O)C(=O)O)C(=O)O)C(=O)O)cc1)C(C)(C)C [SiFA-PSMA ligand 01 b] | 11.8 ± 2.2 nM | 126.43 ± 4.23% | ≥99.0% | −4.04 ± 0.08 | 
CC(C)(C)[Si](F)(c1ccc(C(=O)NC[C@@H](NC(=O)[C@H](CCC(=O)O)NC(=O)CC[C@H](NC(=O)N[C@@H](CCC(=O)O)C(=O)O)C(=O)O)C(=O)N[C@H](CCCCNC(=O)CCC(=O)NCCC[C@@H](NC(=O)CC[C@H](NC(=O)N[C@@H](CCC(=O)O)C(=O)O)C(=O)O)C(=O)O)C(=O)O)cc1)C(C)(C)C [SiFA-PSMA ligand 01 c] | 17 ± 0.9 nM | 175.08 ± 5.93% | ≥98.9% | −3.72 ± 0.02 | 
CC(C)(C)[Si](F)(c1ccc(C(=O)NC[C@@H](NC(=O)[C@@H](CCCNC(N)=O)NC(=O)CC[C@H](NC(=O)N[C@@H](CCC(=O)O)C(=O)O)C(=O)O)C(=O)N[C@H](CCCCNC(=O)CCC(=O)NCCC[C@@H](NC(=O)CC[C@H](NC(=O)N[C@@H](CCC(=O)O)C(=O)O)C(=O)O)C(=O)O)C(=O)O)cc1)C(C)(C)C [SiFA-PSMA ligand 01 d] | 13 ± 1.2 nM | 95.68 ± 9.86% | ≥98.9% | −3.28 ± 0.03 | 
CC(C)(C)[Si](F)(c1ccc(C(=O)NC[C@@H](NC(=O)[C@@H](CN)NC(=O)CC[C@H](NC(=O)N[C@@H](CCC(=O)O)C(=O)O)C(=O)O)C(=O)N[C@H](CCCCNC(=O)CCC(=O)NCCC[C@@H](NC(=O)CC[C@H](NC(=O)N[C@@H](CCC(=O)O)C(=O)O)C(=O)O)C(=O)O)C(=O)O)cc1)C(C)(C)C [SiFA-PSMA ligand 01 e] | 9.2 ± 1.4 nM | 125.13 ± 1.14% | ≥99.0% | −3.96 ± 0.07 | 
CC(C)(C)[Si](F)(c1ccc(C(=O)NC[C@@H](NC(=O)[C@@H](CCCN)NC(=O)CC[C@H](NC(=O)N[C@@H](CCC(=O)O)C(=O)O)C(=O)O)C(=O)N[C@H](CCCCNC(=O)CCC(=O)NCCC[C@@H](NC(=O)CC[C@H](NC(=O)N[C@@H](CCC(=O)O)C(=O)O)C(=O)O)C(=O)O)C(=O)O)cc1)C(C)(C)C [SiFA-PSMA ligand 01 f] | 8.3 ± 1.5 nM | 123.13 ± 2.14% | 98.9% | −3.65 ± 0.09 | 
CC(C)(C)[Si](F)(c1ccc(C(=O)NC[C@@H](NC(=O)[C@@H](CCCCN)NC(=O)CC[C@H](NC(=O)N[C@@H](CCC(=O)O)C(=O)O)C(=O)O)C(=O)N[C@H](CCCCNC(=O)CCC(=O)NCCC[C@@H](NC(=O)CC[C@H](NC(=O)N[C@@H](CCC(=O)O)C(=O)O)C(=O)O)C(=O)O)C(=O)O)cc1)C(C)(C)C [SiFA-PSMA ligand 01 g] | 8.7 ± 0.7 nM | 104.75 ± 4.37% | 98.9% | −3.71 ± 0.03 | 
CC(C)(C)[Si](F)(c1ccc(C(=O)NC[C@@H](NC(=O)[C@H](CCCCN)NC(=O)CC[C@H](NC(=O)N[C@@H](CCC(=O)O)C(=O)O)C(=O)O)C(=O)N[C@H](CCCCNC(=O)CCC(=O)NCCC[C@@H](NC(=O)CC[C@H](NC(=O)N[C@@H](CCC(=O)O)C(=O)O)C(=O)O)C(=O)O)C(=O)O)cc1)C(C)(C)C [SiFA-PSMA ligand 01 h] | 8.7 ± 0.6 nM | 142.95 ± 7.49% | 98.7% | −3.71 ± 0.16 | 
CC(C)(C)[Si](F)(c1ccc(C(=O)NC[C@@H](NC(=O)CNC(=O)CC[C@H](NC(=O)N[C@@H](CCC(=O)O)C(=O)O)C(=O)O)C(=O)N[C@H](CCCCNC(=O)CCC(=O)NCCC[C@@H](NC(=O)CC[C@H](NC(=O)N[C@@H](CCC(=O)O)C(=O)O)C(=O)O)C(=O)O)C(=O)O)cc1)C(C)(C)C [SiFA-PSMA ligand 01 i] | 8.8 ± 1.7 nM | 160.83 ± 2.72% | 98.9% | −3.96 ± 0.04 | 
C[C@H](O)[C@@H](NC(=O)CC[C@H](NC(=O)N[C@@H](CCC(=O)O)C(=O)O)C(=O)O)C(=O)N[C@H](CNC(=O)c1ccc([Si](F)(C(C)(C)C)C(C)(C)C)cc1)C(=O)N[C@H](CCCCNC(=O)CCC(=O)NCCC[C@@H](NC(=O)CC[C@H](NC(=O)N[C@@H](CCC(=O)O)C(=O)O)C(=O)O)C(=O)O)C(=O)O [SiFA-PSMA ligand 01 j] | 9.2 ± 1.2 nM | 120.83 ± 0.92% | ≥98.9% | −3.86 ± 0.07 | 
CC(C)(C)[Si](F)(c1ccc(C(=O)NC[C@@H](NC(=O)[C@@H](Cc2ccccc2)NC(=O)CC[C@H](NC(=O)N[C@@H](CCC(=O)O)C(=O)O)C(=O)O)C(=O)N[C@H](CCCCNC(=O)CCC(=O)NCCC[C@@H](NC(=O)CC[C@H](NC(=O)N[C@@H](CCC(=O)O)C(=O)O)C(=O)O)C(=O)O)C(=O)O)cc1)C(C)(C)C [SiFA-PSMA ligand 01 k] | 29.4 ± 0.6 nM | 61.61 ± 1.33% | ≥98.9% | −2.99 ± 0.02 | 
CC(C)(C)[Si](F)(c1ccc(C(=O)NC[C@@H](NC(=O)[C@H](N)CNC(=O)CC[C@H](NC(=O)N[C@@H](CCC(=O)O)C(=O)O)C(=O)O)C(=O)N[C@H](CCCCNC(=O)CCC(=O)NCCC[C@@H](NC(=O)CC[C@H](NC(=O)N[C@@H](CCC(=O)O)C(=O)O)C(=O)O)C(=O)O)C(=O)O)cc1)C(C)(C)C [SiFA-PSMA ligand 02 a] |  | 231.60 ± 14.21% | ≥98.9% | −3.65 ± 0.09 | 10.2 ± 1.2 nM
CC(C)(C)[Si](F)(c1ccc(C(=O)NC[C@@H](NC(=O)CCCCCNC(=O)CC[C@H](NC(=O)N[C@@H](CCC(=O)O)C(=O)O)C(=O)O)C(=O)N[C@H](CCCCNC(=O)CCC(=O)NCCC[C@@H](NC(=O)CC[C@H](NC(=O)N[C@@H](CCC(=O)O)C(=O)O)C(=O)O)C(=O)O)C(=O)O)cc1)C(C)(C)C [SiFA-PSMA ligand 02 c] | 5.9 ± 1 nM | 156.95 ± 13.21% | ≥99.0% | −3.27 ± 0.02 | 
CC(C)(C)[Si](F)(c1ccc(C(=O)N[C@H](CC(=O)N[C@H](CC(=O)NCCC[C@@H](NC(=O)c2cc(C(=O)O)cc(C(=O)O)c2)C(=O)NCCCC[C@@H](NC(=O)CC[C@H](NC(=O)N[C@@H](CCC(=O)O)C(=O)O)C(=O)O)C(=O)O)C(=O)O)C(=O)N[C@H](CC(=O)NCCC[C@@H](NC(=O)c2cc(C(=O)O)cc(C(=O)O)c2)C(=O)NCCCC[C@@H](NC(=O)CC[C@H](NC(=O)N[C@@H](CCC(=O)O)C(=O)O)C(=O)O)C(=O)O)C(=O)O)cc1)C(C)(C)C [SiFA-PSMA ligand 07] |  | 311.75 ± 7.30% |  | −3.45 ± 0.01 | 5.5 ± 0.6 nM
